Assay results reported in US8802597B2, “Herbicidal pyrimidines” (E I du Pont de Nemours and Company, priority 2003, dated 2014).
Read-outs that look alike come from different tables or passages of the source.

What was measured:
Assay type in all cases: in vivo
[1] = tested on: morningglory (Ipomoea coccinea); assay: Test B pre/postemergence; conditions: Ipomoea; for pest or weed control at 125 g/ha: 125 g ai/ha; for pest or weed control at 500 g/ha: 500 g ai/ha
Procedure, shortened: (§1)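 Greenhouse whole-plant test; surfactant-containing non-phytotoxic solvent formulation; pre- and postemergence applications made simultaneously; post plants 2–18 cm, 1- to 4-leaf; visual scoring at 13–15 days on 0–100 scale relative to controls.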

[2] = tested on: lambsquarters (Chenopodium album); assay: Test B pre/postemergence; conditions: Chenopodium album; for pest or weed control at 125 g/ha: 125 g ai/ha; for pest or weed control at 500 g/ha: 500 g ai/ha
Procedure, shortened: as §1

[3] = tested on: Surinam grass (Brachiaria decumbens); assay: Test B pre/postemergence; conditions: Urochloa decumbens; for pest or weed control at 125 g/ha: 125 g ai/ha; for pest or weed control at 500 g/ha: 500 g ai/ha
Procedure, shortened: as §1

corn (Zea mays) = assay: Test B pre/postemergence; conditions: Zea mays
Procedure, shortened: as §1

[4] = tested on: barnyardgrass (Echinochloa crus-galli); assay: Test B pre/postemergence; conditions: Echinochloa crus-galli; for pest or weed control at 125 g/ha: 125 g ai/ha; for pest or weed control at 500 g/ha: 500 g ai/ha
Procedure, shortened: as §1

[5] = tested on: velvetleaf (Abutilon theophrasti); assay: Test B pre/postemergence; conditions: Abutilon theophrasti; for pest or weed control at 125 g/ha: 125 g ai/ha; for pest or weed control at 500 g/ha: 500 g ai/ha
Procedure, shortened: as §1

[6] = tested on: giant foxtail (Setaria faberii); assay: Test B pre/postemergence; conditions: Setaria faberi; for pest or weed control at 125 g/ha: 125 g ai/ha; for pest or weed control at 500 g/ha: 500 g ai/ha
Procedure, shortened: as §1

[7] = tested on: pigweed (Amaranthus retroflexus); assay: Test B pre/postemergence; conditions: Amaranthus retroflexus; for pest or weed control at 125 g/ha: 125 g ai/ha; for pest or weed control at 500 g/ha: 500 g ai/ha
Procedure, shortened: as §1

[8] = tested on: crabgrass (Digitaria sanguinalis); assay: Test B pre/postemergence; conditions: Digitaria sanguinalis; for pest or weed control at 125 g/ha: 125 g ai/ha; for pest or weed control at 500 g/ha: 500 g ai/ha
Procedure, shortened: as §1

[9] = tested on: cocklebur (Xanthium strumarium); assay: Test B pre/postemergence; conditions: Xanthium strumarium; for pest or weed control at 125 g/ha: 125 g ai/ha; for pest or weed control at 500 g/ha: 500 g ai/ha
Procedure, shortened: as §1

[10] = tested on: wheat (Triticum aestivum); assay: Test B pre/postemergence; conditions: Triticum aestivum; for plant injury at 125 g/ha: 125 g ai/ha; for plant injury at 500 g/ha: 500 g ai/ha
Procedure, shortened: as §1

wild oat (Avena fatua) = assay: Test B postemergence; conditions: Avena fatua, post-emergence
Procedure, shortened: as §1

[11] = tested on: blackgrass (Alopecurus myosuroides); assay: Test B postemergence; conditions: Alopecurus myosuroides, post-emergence
Procedure, shortened: as §1

[12] = tested on: barnyardgrass (Echinochloa crus-galli); assay: Test B flooded paddy test; conditions: Echinochloa crus-galli, Flood, 1000 g ai/ha; scale 0 (no effect) to 100 (complete control); read-out: Plant response rating, Barnyardgrass
Procedure, shortened: (§2)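 Plants were grown to the 2-leaf stage before treatment, then kept in a greenhouse for 13 to 15 days. Injury was rated visually against untreated controls on a 0 to 100 scale, where 0 is no effect and 100 is complete control.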

[13] = tested on: duck salad (Heteranthera limosa); assay: Test B flooded paddy test; conditions: Heteranthera limosa, Flood, 1000 g ai/ha; scale 0 to 100; read-out: Plant response rating, Ducksalad
Procedure, shortened: as §2

[14] = tested on: umbrella sedge (Cyperus difformis); assay: Test B flooded paddy test; conditions: Cyperus difformis, Flood, 1000 g ai/ha; scale 0 to 100; read-out: Plant response rating, Sedge, Umbrella
Procedure, shortened: as §2

rice (Oryza sativa) = assay: Test B flooded paddy test; conditions: Oryza sativa, Flood, 1000 g ai/ha; scale 0 to 100; read-out: Plant response rating, Rice
Procedure, shortened: as §2

Nc1nc(C2CC2)nc(C=O)c1Br [Compound 26]
pest or weed control at 125 g/ha ([1]; post-emergence, Postemergence, scale 0 to 100 (0 no effect, 100 complete control), read-out: Morningglory plant response rating): 70%
pest or weed control at 500 g/ha ([1]; post-emergence, Postemergence, scale 0 to 100, read-out: Plant response rating, Morningglory): 80%
pest or weed control at 125 g/ha ([1]; pre-emergence, Preemergence, scale 0 to 100 (0 no effect, 100 complete control), read-out: Plant response rating, Morningglory): 90%
pest or weed control at 500 g/ha ([1]; pre-emergence, Preemergence, scale 0 to 100 (0 no effect, 100 complete control), read-out: Morningglory plant response rating): 100%
pest or weed control at 125 g/ha ([2]; post-emergence, Postemergence, scale 0 to 100 (0 no effect, 100 complete control), read-out: Lambsquarters plant response rating): 70%
pest or weed control at 500 g/ha ([2]; post-emergence, Postemergence, scale 0 to 100, read-out: Plant response rating, Lambsquarters): 80%
pest or weed control at 125 g/ha ([2]; pre-emergence, Preemergence, scale 0 to 100 (0 no effect, 100 complete control), read-out: Plant response rating, Lambsquarters): 100%
pest or weed control at 500 g/ha ([2]; pre-emergence, Preemergence, scale 0 to 100 (0 no effect, 100 complete control), read-out: Lambsquarters plant response rating): 100%
pest or weed control at 125 g/ha ([3]; post-emergence, Postemergence, scale 0 to 100 (0 no effect, 100 complete control), read-out: Surinam Grass plant response rating): 30%
pest or weed control at 500 g/ha ([3]; post-emergence, Postemergence, scale 0 to 100, read-out: Plant response rating, Surinam Grass): 60%
pest or weed control at 125 g/ha ([3]; pre-emergence, Preemergence, scale 0 to 100 (0 no effect, 100 complete control), read-out: Plant response rating, Surinam Grass): 10%
pest or weed control at 500 g/ha ([3]; pre-emergence, Preemergence, scale 0 to 100 (0 no effect, 100 complete control), read-out: Surinam Grass plant response rating): 80%
plant injury at 125 g/ha (corn (Zea mays); post-emergence, Postemergence, 125 g ai/ha, scale 0 to 100 (0 no effect, 100 complete control), read-out: Corn plant response rating): 0%
Corn plant response rating (crop injury, 0 = no effect, 100 = complete kill) at 500 g/ha (corn (Zea mays); post-emergence, Postemergence, 500 g ai/ha, scale 0 to 100): 20%
Corn plant response rating (crop injury, 0 = no effect, 100 = complete kill) at 125 g/ha (corn (Zea mays); pre-emergence, Preemergence, 125 g ai/ha, scale 0 to 100 (0 no effect, 100 complete control)): 30%
plant injury at 500 g/ha (corn (Zea mays); pre-emergence, Preemergence, 500 g ai/ha, scale 0 to 100 (0 no effect, 100 complete control), read-out: Corn plant response rating): 80%
pest or weed control at 125 g/ha ([4]; post-emergence, Postemergence, scale 0 to 100 (0 no effect, 100 complete control), read-out: Barnyardgrass plant response rating): 20%
pest or weed control at 500 g/ha ([4]; post-emergence, Postemergence, scale 0 to 100, read-out: Plant response rating, Barnyardgrass): 60%
pest or weed control at 125 g/ha ([4]; pre-emergence, Preemergence, scale 0 to 100 (0 no effect, 100 complete control), read-out: Plant response rating, Barnyardgrass): 50%
pest or weed control at 500 g/ha ([4]; pre-emergence, Preemergence, scale 0 to 100 (0 no effect, 100 complete control), read-out: Barnyardgrass plant response rating): 90%
pest or weed control at 125 g/ha ([5]; post-emergence, Postemergence, scale 0 to 100 (0 no effect, 100 complete control), read-out: Velvetleaf plant response rating): 40%
pest or weed control at 500 g/ha ([5]; post-emergence, Postemergence, scale 0 to 100, read-out: Plant response rating, Velvetleaf): 70%
pest or weed control at 125 g/ha ([5]; pre-emergence, Preemergence, scale 0 to 100 (0 no effect, 100 complete control), read-out: Plant response rating, Velvetleaf): 90%
pest or weed control at 500 g/ha ([5]; pre-emergence, Preemergence, scale 0 to 100 (0 no effect, 100 complete control), read-out: Velvetleaf plant response rating): 100%
pest or weed control at 125 g/ha ([6]; post-emergence, Postemergence, scale 0 to 100 (0 no effect, 100 complete control), read-out: Foxtail, Giant plant response rating): 30%
pest or weed control at 500 g/ha ([6]; post-emergence, Postemergence, scale 0 to 100, read-out: Plant response rating, Foxtail, Giant): 40%
pest or weed control at 125 g/ha ([6]; pre-emergence, Preemergence, scale 0 to 100 (0 no effect, 100 complete control), read-out: Plant response rating, Foxtail, Giant): 10%
pest or weed control at 500 g/ha ([6]; pre-emergence, Preemergence, scale 0 to 100 (0 no effect, 100 complete control), read-out: Foxtail, Giant plant response rating): 80%
pest or weed control at 125 g/ha ([7]; post-emergence, Postemergence, scale 0 to 100 (0 no effect, 100 complete control), read-out: Pigweed plant response rating): 70%
pest or weed control at 500 g/ha ([7]; post-emergence, Postemergence, scale 0 to 100, read-out: Plant response rating, Pigweed): 80%
pest or weed control at 125 g/ha ([7]; pre-emergence, Preemergence, scale 0 to 100 (0 no effect, 100 complete control), read-out: Plant response rating, Pigweed): 90%
pest or weed control at 500 g/ha ([7]; pre-emergence, Preemergence, scale 0 to 100 (0 no effect, 100 complete control), read-out: Pigweed plant response rating): 100%
pest or weed control at 125 g/ha ([8]; post-emergence, Postemergence, scale 0 to 100 (0 no effect, 100 complete control), read-out: Crabgrass plant response rating): 40%
pest or weed control at 500 g/ha ([8]; post-emergence, Postemergence, scale 0 to 100, read-out: Plant response rating, Crabgrass): 70%
pest or weed control at 125 g/ha ([8]; pre-emergence, Preemergence, scale 0 to 100 (0 no effect, 100 complete control), read-out: Plant response rating, Crabgrass): 30%
pest or weed control at 500 g/ha ([8]; pre-emergence, Preemergence, scale 0 to 100 (0 no effect, 100 complete control), read-out: Crabgrass plant response rating): 90%
pest or weed control at 125 g/ha ([9]; post-emergence, Postemergence, scale 0 to 100 (0 no effect, 100 complete control), read-out: Cocklebur plant response rating): 80%
pest or weed control at 500 g/ha ([9]; post-emergence, Postemergence, scale 0 to 100, read-out: Plant response rating, Cocklebur): 90%
pest or weed control at 125 g/ha ([9]; pre-emergence, Preemergence, scale 0 to 100 (0 no effect, 100 complete control), read-out: Plant response rating, Cocklebur): 80%
pest or weed control at 500 g/ha ([9]; pre-emergence, Preemergence, scale 0 to 100 (0 no effect, 100 complete control), read-out: Cocklebur plant response rating): 90%
plant injury at 125 g/ha ([10]; post-emergence, Postemergence, scale 0 to 100 (0 no effect, 100 complete control), read-out: Wheat plant response rating): 30%
plant injury at 500 g/ha ([10]; post-emergence, Postemergence, scale 0 to 100, read-out: Plant response rating, Wheat): 30%
plant injury at 125 g/ha ([10]; pre-emergence, Preemergence, scale 0 to 100 (0 no effect, 100 complete control), read-out: Plant response rating, Wheat): 30%
plant injury at 500 g/ha ([10]; pre-emergence, Preemergence, scale 0 to 100 (0 no effect, 100 complete control), read-out: Wheat plant response rating): 60%
pest or weed control at 125 g/ha (wild oat (Avena fatua); 125 g ai/ha, scale 0 to 100 (0 no effect, 100 complete control), read-out: Oat, Wild plant response rating): 30%
pest or weed control at 500 g/ha (wild oat (Avena fatua); 500 g ai/ha, scale 0 to 100, read-out: Plant response rating, Oat, Wild): 40%
pest or weed control at 125 g/ha ([11]; 125 g ai/ha, scale 0 to 100 (0 no effect, 100 complete control), read-out: Blackgrass plant response rating): 40%
pest or weed control at 500 g/ha ([11]; 500 g ai/ha, scale 0 to 100, read-out: Plant response rating, Blackgrass): 70%
pest or weed control at 1000 g/ha [12]: 60%
pest or weed control at 1000 g/ha [13]: 90%
pest or weed control at 1000 g/ha [14]: 80%
plant injury at 1000 g/ha (rice (Oryza sativa)): 70%
